“Also recorded” adds a separate entry of the source.
Legend:
Type in all cases: cell-based, human
[1] = test system: MU89 MART::EGFP cell line; experiment: Melan-A/MART-1 promoter-driven EGFP reporter, kinetics by flow cytometry; conditions: MU89 MART::EGFP (FIG. 11)
Protocol: FIG. 11 is a set of four graphs showing the kinetics of Melan-A/MART-1 increase. […] The same number of cells per well were plated in each well of a 24 well plate and drug was added on day zero. Each day cells were collected and assayed for that time point. Control untreated cells are shown for comparison. The data are from one representative experiment.
A kinetic analysis was performed to determine the effect of Hsp90 inhibition on Melan-A/MART-1 promoter activity over time. […] Reporter activity increases steadily for the first 72 hours of Hsp90 inhibition, and then plateaus. The need for continued presence of Hsp90 inhibitors in order for them to be effective (i.e. whether the drug can be removed after short exposure, or whether it must it be continually present) was assessed. […] To achieve full signal enhancement, it is desirable to retain the drug for at least 48 hours, after which the effect remains constant or slightly decreases.
The generation and application of EGFP reporter cells has been previously described. Briefly, a 1200 base pair human genomic DNA segment encompassing the Melan-A/MART-1 promoter was used to generate a construct driving expression of the EGFP reporter gene. Stable transfectants with this construct were generated in the low-antigen cell line A375 and the high-antigen line MM96L+ and MU89. The EGFP expression response patterns of these cells to IFN-beta and MAP kinase inhibitors recapitulates the antigen up-regulation of endogenous Melan-A/MART-1 induced by these agents.
(§1) Intracellular staining and flow cytometric analyses of cytoplasmic Melan-A/MART-1, and gp100 expression were performed as described previously. Cells were fixed with 1% formaldehyde, permeabilized with 0.1% saponin, stained with monoclonal antibodies to melanocyte antigens. Antibodies were obtained with specificity for: Melan-A/MART-1 from Vector Labs (Burlingame, Calif.); gp100/HMB45 from DakoCytomation (Carpinteria, Calif.) and then visualized with goat anti-mouse FITC-conjugated secondary antibody from Invitrogen (Frederick, Md.). The level of EGFP was determined by flow cytometry of unfixed cells washed and resuspended in 1×PBS. Surface staining of MHC Class I was carried out using the antibody W6/32 on cells harvested with Cell Stripper from MediaTech Inc. (Manassas, Va.) and carried out on ice.

MU89 melanoma cell line = experiment: Antibody staining and flow cytometry (intracellular Melan-A/MART-1, gp100, TRP-2; surface MHC Class I/II)
Protocol: (§2) Cells were fixed with 1% formaldehyde, permeabilized with 0.1% saponin, stained with monoclonal antibodies to melanocyte antigens. Antibodies were obtained with specificity for: MART-1 from Vector Labs (Burlingame, Calif.); gp100 HMB45 from DakoCytomation (Carpinteria, Calif.) and then visualized with goat anti-mouse FITC-conjugated secondary antibody from Invitrogen (Fredrick, Md.). The level of EGFP was determined by flow cytometry of unfixed cells that were washed and resuspended in 1×PBS.
(§3) Cells were plated at a density of 1×10^5 in 1 ml of medium in a 24-well plate and cultured for varying times as indicated in results. […] After incubation, cells were collected by trypsinization and then evaluated by flow cytometry.
as §1
(§4) Cell were seeded at 1×10^6 cells in a T25 flask with 10 ml of media for the 4 day IFN-beta pre-treatments. Cells were then harvested and plated in 24 well plate at 1×10^5 cells per well in 1 ml of media for 3 day treatments.
(§5) For surface staining of HLA Class I and II antigens, cells were harvested using CellStripper™ from Mediatech (Manassas, Va.). All staining steps were performed on ice. Following a first incubation with antibody to Class I (W6/32) or Class II (L243) for 30 minutes. Stained cells were washed twice with cold PBS and then stained with a goat anti-mouse FITC secondary antibody to allow for quantitative analysis by flow cytometry. For evaluation of cytoplasmic antigens, including Melan-A/MART-1 and gp100, cells were first fixed in paraformaldehyde and permeabilized with saponin as previously described. Staining for cytoplasmic antigens was carried out at room temperature (22° C.).

[2] = test system: MALME-3M melanoma cell line; experiment: Antibody staining and flow cytometry (intracellular Melan-A/MART-1, gp100, TRP-2; surface MHC Class I)
Protocol: as §2, §3, §1

A375 melanoma cell line = experiment: as above
Protocol: as §2, §3, §1, §4, §5

MUX melanoma cell line = experiment: as above; conditions: MUX
Protocol: as §2, §3, §1, §4, §5

[3] = test system: U-118 MG glioma cell line; experiment: Antibody staining and flow cytometry (intracellular gp100; surface MHC Class I/II); conditions: for Class I MHC, geometric mean of surface staining (W6/32): U-118
Protocol: as §2, §3, §1, §4, §5

U-87 MG glioma cell line = experiment: Antibody staining and flow cytometry (intracellular gp100; surface MHC Class I)
Protocol: as §2, §3, §1

[4] = MU89, 3 days, IFN-beta 5000 Units/ml, 17-AEP 1.0, PU-H71 0.3, CCT018159 10.0 μg/ml
[5] = MU89, three days, IFN-β 5000 Units/ml, IFN-γ 100 ng/ml, PU-H71 0.3 mg/ml
[6] = MU89 cells, Table 20, single agent or simultaneous combination
[7] = MALME-3M, 3 days, IFN-beta 5000 Units/ml, 17-AEP 1.0, PU-H71 0.3, CCT018159 10.0 μg/ml
[8] = 3 days, IFN-beta 5000 Units/ml, 17-AEP 0.5, PU-H71 0.15, CCT018159 2.5 μg/ml
[9] = 3 days, IFN-beta 5000 Units/ml, 17-AEP 1.0, PU-H71 0.3, CCT018159 10.0 μg/ml
[10] = U118 cells, Table 20, single agent or simultaneous combination
[11] = U-87 MG, 3 days, IFN-beta 5000 Units/ml, 17-AEP 0.5, PU-H71 0.3, CCT018159 5.0 μg/ml

CC(C)NCCCn1c(Sc2cc3c(cc2I)OCO3)nc2c(N)ncnc21 [PU-H71]
Time at which the fluorescent reporter signal is significantly enhanced (as early as) [1]: 2 days | Class I, geometric mean of surface staining (W6/32) (MU89 melanoma cell line; [4]): 66 | MART-1, geometric mean of intracellular staining (MU89 melanoma cell line; [4]): 147 | TRP-2, geometric mean of intracellular staining (MU89 melanoma cell line; [4]): 214 | gp100, geometric mean of intracellular staining (MU89 melanoma cell line; [4]): 381 | MHC Class I, geometric mean of surface staining (W6/32) (MU89 melanoma cell line; MU89, 4 day IFN-β pre-treatment (5000 Units/ml), then 3 days with fresh IFN-β and the labelled HSP90 inhibitor (label IFN-β: no inhibitor), 17-AEP 1, PU-H71 0.3, CCT018159 10 mg/ml): 390 | MHC Class I, geometric mean of surface staining (W6/32) (MU89 melanoma cell line; MU89, 4 day IFN-β pre-treatment (5000 Units/ml), then 3 days without IFN-β with the labelled HSP90 inhibitor (label IFN-β: no inhibitor), 17-AEP 1, PU-H71 0.3, CCT018159 10 mg/ml): 307 | Class I antigen induction, sequential treatment (MU89 melanoma cell line; MU89, IFN-beta pre-treatment, then PU-H71 for 3 days (FIG. 22)): synergistically enhanced; also recorded: far exceeded what was achieved with either drug alone | Class II antigen level, sequential treatment (MU89 melanoma cell line; MU89, IFN-gamma for 3 days, subsequently PU-H71 (FIG. 23)): significantly greater than that achieved with IFN-gamma alone | MHC Class I, geometric mean of surface staining (W6/32) (MU89 melanoma cell line; MU89, single agent for 3 days, no IFN-β pre-treatment, IFN-β 5000 Units/ml): 75 | MHC Class I, geometric mean of surface staining (W6/32) (MU89 melanoma cell line; MU89, three days, IFN-β 5000 Units/ml): 66 | MHC Class I, geometric mean of surface staining (W6/32) (MU89 melanoma cell line; [5]): 99 | MHC Class II, geometric mean of surface staining (L2443) (MU89 melanoma cell line; [5]): 43 | L243 (MHC Class II surface staining) (MU89 melanoma cell line; [6]): 4.1 | W6/32 (MHC Class I surface staining) (MU89 melanoma cell line; [6]): 72.1 | L243 (MHC Class II surface staining) (MU89 melanoma cell line; MU89 cells, Table 21, no pre-treatment, treatment as labelled): 5 | L243 (MHC Class II surface staining) (MU89 melanoma cell line; MU89 cells, Table 21, pre-treatment IFN-G (3 days), then treatment as labelled): 338 | L243 (MHC Class II surface staining) (MU89 melanoma cell line; MU89 cells, Table 21, substance given as pre-treatment (3 days) only, no subsequent treatment): 2 | Class II induction by IFN-gamma, combination (MU89 melanoma cell line; MU-89, Hsp90 inhibitor together with IFN-gamma): ablation of the IFN-gamma induction of Class II antigen | Class I expression, combination (MU89 melanoma cell line; MU-89, PU-H71 together with IFN-beta): additive effect | Class I induction by IFN-gamma, combination (MU89 melanoma cell line; MU-89, PU-H71 together with IFN-gamma): not further enhanced | L243 (MHC Class II surface staining) (MU89 melanoma cell line; MU-89, single agent): 4.5 | Class I, geometric mean of surface staining (W6/32) [2, 7]: 137 | MART-1, geometric mean of intracellular staining [2, 7]: 226 | TRP-2, geometric mean of intracellular staining [2, 7]: 279 | gp100, geometric mean of intracellular staining [2, 7]: 511 | MHC Class I, geometric mean of surface staining (W6/32) ([2]; MALME, three days, IFN-β 5000 Units/ml): 137 | Class I, geometric mean of surface staining (W6/32) (A375 melanoma cell line; [8]): 71 | MART-1, geometric mean of intracellular staining (A375 melanoma cell line; [8]): 11 | TRP-2, geometric mean of intracellular staining (A375 melanoma cell line; [8]): 26 | gp100, geometric mean of intracellular staining (A375 melanoma cell line; [8]): 24 | MHC Class I, geometric mean of surface staining (W6/32) (A375 melanoma cell line; 4 day IFN-β pre-treatment (5000 Units/ml), then 3 days with fresh IFN-β and the labelled HSP90 inhibitor (label IFN-β: no inhibitor), 17-AEP 0.5, PU-H71 0.15, CCT018159 2.5): 226 | MHC Class I, geometric mean of surface staining (W6/32) (A375 melanoma cell line; 4 day IFN-β pre-treatment (5000 Units/ml), then 3 days without IFN-β with the labelled HSP90 inhibitor (label IFN-β: no inhibitor), 17-AEP 0.5, PU-H71 0.15, CCT018159 2.5): 174 | MHC Class I, geometric mean of surface staining (W6/32) (A375 melanoma cell line; single agent for 3 days, no IFN-β pre-treatment, IFN-β 5000 Units/ml, 17-AEP 0.5, PU-H71 […], CCT018159 2.5): 131 | MHC Class I, geometric mean of surface staining (W6/32) (A375 melanoma cell line; three days, IFN-β 5000 Units/ml, 17-AEP 0.5, PU-H71 […], CCT018159 2.5): 71 | Class I, geometric mean of surface staining (W6/32) (MUX melanoma cell line; [9]): 212 | MART-1, geometric mean of intracellular staining (MUX melanoma cell line; [9]): 19 | TRP-2, geometric mean of intracellular staining (MUX melanoma cell line; [9]): 41 | gp100, geometric mean of intracellular staining (MUX melanoma cell line; [9]): 32 | MHC Class I, geometric mean of surface staining (W6/32) (MUX melanoma cell line; 4 day IFN-β pre-treatment (5000 Units/ml), then 3 days with fresh IFN-β and the labelled HSP90 inhibitor (label IFN-β: no inhibitor), 17-AEP 1, PU-H71 0.3, CCT018159 10 mg/ml): 579 | MHC Class I, geometric mean of surface staining (W6/32) (MUX melanoma cell line; 4 day IFN-β pre-treatment (5000 Units/ml), then 3 days without IFN-β with the labelled HSP90 inhibitor (label IFN-β: no inhibitor), 17-AEP 1, PU-H71 0.3, CCT018159 10 mg/ml): 477 | MHC Class I, geometric mean of surface staining (W6/32) (MUX melanoma cell line; single agent for 3 days, no IFN-β pre-treatment, IFN-β 5000 Units/ml, 17-AEP 1 μg/ml, PU-H71 0.3 μg/ml, CCT018159 10 μg/ml): 282 | MHC Class I, geometric mean of surface staining (W6/32) (MUX melanoma cell line; three days, IFN-β 5000 Units/ml, 17-AEP 1 μg/ml, PU-H71 0.3 μg/ml, CCT018159 10 μg/ml): 212 | MHC Class II, geometric mean of surface staining (L2443) ([3]; Giloma-118, three days, IFN-β 5000 Units/ml, IFN-γ 100 ng/ml, PU-H71 0.3 mg/ml): 4 | MHC Class I, geometric mean of surface staining (W6/32) ([3]; Giloma-118, three days, IFN-β 5000 Units/ml, IFN-γ 100 ng/ml, PU-H71 0.3): 88 | Class II induction, combination ([3]; U118, co-treatment with IFN-gamma and PU-H71): prevented | L243 (MHC Class II surface staining) ([3]; U118, single agent): 4.1 | L243 (MHC Class II surface staining) [3, 10]: 6.3 | W6/32 (MHC Class I surface staining) [3, 10]: 135.7 | Class I MHC, geometric mean of surface staining (W6/32) ([3]; 4 day IFN-β pre-treatment (5000 Units/ml), then 3 days with fresh IFN-β, with PU-H71 0.3 where labelled (label IFN-β: no inhibitor)): 184 | Class I MHC, geometric mean of surface staining (W6/32) ([3]; 4 day IFN-β pre-treatment (5000 Units/ml), then 3 days without IFN-β, with PU-H71 0.3 where labelled (label IFN-β: no inhibitor)): 224 | Class I MHC, geometric mean of surface staining (W6/32) ([3]; single agent for 3 days, no IFN-β pre-treatment, IFN-β 5000 Units/ml, PU-H71 0.3): 138 | gp100, geometric mean of intracellular staining ([3]; U-118 MG, 3 days, IFN-beta 5000 Units/ml, 17-AEP 1.0, PU-H71 0.3, CCT018159 10.0 μg/ml): 63 | MHC Class I, geometric mean of surface staining (W6/32) ([3]; U-118 glioma, three days, IFN-β 5000 Units/ml, PU-H71 0.075-0.3): 88 | Class I, geometric mean of surface staining (W6/32) (U-87 MG glioma cell line; [11]): 53 | gp100, geometric mean of intracellular staining (U-87 MG glioma cell line; [11]): 66 | MHC Class I, geometric mean of surface staining (W6/32) (U-87 MG glioma cell line; U-87 glioma, three days, IFN-β 5000 Units/ml, PU-H71 0.075-0.3): 71

Reference: patent publication US20140335050A1, “METHODS, COMPOSITIONS, AND KITS FOR THE TREATMENT OF CANCER” (The General Hospital Corporation, priority 2011, published 2014)
